Data published in US9868734B2, “Conjugate of benzofuranone and indole or azaindole, and preparation and uses thereof” (Luoda Biosciences, Inc., priority 2013, dated 2018).

How the values were obtained:
[1] = test system: human lung adenocarcinoma epithelial cell line A549; experiment: MTT assay, inhibition of tumor cell growth (A549); format: cell-based; conditions: 72 hours incubation, read-out: IC50 on the tumor cells A549
Procedure: (§1) human hepatocellular carcinoma cell line HepG-2, human lung adenocarcinoma epithelial cell line A549
(§2) Tumor cells were seeded in RPM11640 medium containing 10% calf serum, incubated at 37° C., 5% CO2 in CO2 incubator, and passaged every 2-3 days. Cells at logarithmic growth phase were used for this experiment.
(§3) The cells at logarithmic growth phase were formulated into suspension. The cell viability by trypan blue staining was more than 98%. The cell suspension was divided into several groups: 1 as blank control group (cell suspension plus solvent DMSO); and 2 as experimental groups (cell suspension plus compounds to be tested).
(§4) The drugs were formulated into a stock solution in DMSO, and the concentration of the stock solution was 20 mmol (used within 4 hours). In the experiment, the work solution of the drugs was diluted with RPMI1640 medium containing 10% calf serum under aseptic condition, to a final concentration of […]. The drug concentrations were increased by 2 times (1.25-20 μM).
(§5) The cells in logarithmic growth phase were selected, centrifuged, counted, and formulated into a cell suspension (2.5×10^4/ml) with RPMI1640 medium containing 10% calf serum. The cell suspension were inoculated into 96-well plates at a density of 5000 cells/200 μl per well, incubated for 24 hours at 37° C., 5% CO2. According to the above concentration of the drug, the cells were inoculated to 6 groups (including one control group), with 8 wells per group. After incubating for 72 hours, the viability of cells was measured by MTT assay. The absorbance value (A) was measured with detection wavelength at 540 nm, reference wavelength at 630 nm. The inhibitory rate (I) was calculated by the following equation, where T was the absorbance value of the experimental groups, and C was the absorbance value of the blank control group: I=(1−T/C)×100%
(§6) Equation of regression line was drawn from concentration-inhibitory rate curve, from which the IC50 of tested sample was calculated.

[2] = test system: human hepatocellular carcinoma cell line HepG-2; experiment: MTT assay, inhibition of tumor cell growth (HepG2); format: cell-based; conditions: 72 hours incubation, read-out: IC50 on the tumor cells HepG2
Procedure: as §1, §2, §3, §4, §5, §6

Compound	IC50 [1] [µM]	IC50 [2] [µM]
O=C1Nc2ccccc2C1=C1Oc2ccccc2C1=O [Compound 1]	40 ± 1.4	> 100
O=C1Nc2c(F)cccc2C1=C1Oc2ccccc2C1=O [Compound 2]	> 100	–
CCN1C(=O)C(=C2Oc3ccccc3C2=O)c2ccccc21 [Compound 3]	21.9 ± 0.9	26.4 ± 1.1
CCN1C(=O)C(=C2Oc3ccccc3C2=O)c2cc(Cl)ccc21 [Compound 5]	11.5 ± 1	87 ± 2.1
CCN1C(=O)C(=C2Oc3ccccc3C2=O)c2ccc(Cl)cc21 [Compound 6]	11.9 ± 1.4	60 ± 1.7
CC(C)N1C(=O)C(=C2Oc3ccccc3C2=O)c2cc(F)ccc21 [Compound 9]	18.5 ± 1.8	25 ± 1
CC(C)N1C(=O)C(=C2Oc3ccccc3C2=O)c2ccc(Cl)cc21 [Compound 12]	14 ± 1.7	26 ± 2.7
Cc1ccc2c(c1)C(=C1Oc3ccccc3C1=O)C(=O)N2C(C)C [Compound 13]	11 ± 1.2	42 ± 1.8
O=C1C(=C2C(=O)N(Cc3ccccc3)c3ccc(Cl)cc32)Oc2ccccc21 [Compound 16]	16 ± 2	61 ± 2.9
CCN1C(=O)C(=C2Oc3ccc(Cl)cc3C2=O)c2ccccc21 [Compound 19]	16 ± 1.5	8 ± 1.5
CCN1C(=O)C(=C2Oc3ccc(Cl)cc3C2=O)c2cccc(F)c21 [Compound 20]	1.8 ± 1	12 ± 1.4
CC(C)N1C(=O)C(=C2Oc3ccccc3C2=NO)c2ccccc21 [Compound 32]	10.5 ± 1.3	12.8 ± 1.6
O=C1C(=C2Oc3ccccc3C2=NO)c2ccccc2N1C1OC(CO)C(O)C1O (stereo not drawn) [Compound 33]	14.8 ± 1.2	21 ± 0.9
CC(C)N1C(=O)C(=C2Oc3ccccc3C2=NO)c2cccc(F)c21 [Compound 34]	14.1 ± 1.5	51.1 ± 2.6
CC(C)N1C(=O)C(=C2Oc3ccccc3C2=NO)c2cc(Cl)ccc21 [Compound 35]	17.5 ± 1.8	29.2 ± 1.4
O=C1C(=C2Oc3ccccc3C2=NO)c2cc(F)ccc2N1Cc1ccccc1 [Compound 39]	33 ± 2.9	19 ± 2.1
O=C1C(=C2Oc3ccccc3C2=NO)c2cc(Cl)ccc2N1Cc1ccccc1 [Compound 40]	14 ± 1.2	> 100
CCN1C(=O)C(=C2Oc3ccccc3C2=NO)c2cc(F)ccc21 [Compound 42]	15 ± 1.2	28 ± 2.5
CCN1C(=O)C(=C2Oc3ccc(Cl)cc3C2=NO)c2ccccc21 [Compound 43]	14 ± 1.7	42 ± 4.2
CCN1C(=O)C(=C2Oc3ccc(Cl)cc3C2=NO)c2cccc(F)c21 [Compound 44]	> 100	> 100
CON=C1C(=C2C(=O)N(C(C)C)c3cc(Cl)ccc32)Oc2ccccc21 [Compound 54]	12 ± 1.4	1.8 ± 1.9
CON=C1C(=C2C(=O)N(C(C)C)c3ccc(C)cc32)Oc2ccccc21 [Compound 55]	12 ± 1.9	4 ± 2.4
CON=C1C(=C2C(=O)N(Cc3ccccc3)c3ccc(Cl)cc32)Oc2ccccc21 [Compound 58]	12.1 ± 0.9	3.8 ± 1.5
CON=C1C(=C2C(=O)N(C(C)C)c3cc(Cl)ccc32)Oc2ccc(Cl)cc21 [Compound 60]	29 ± 1.8	5.4 ± 0.6
CCN1C(=O)C(=C2Oc3ccccc3C2=O)c2c1ccnc2C [Compound 65]	18.5 ± 1.8	40 ± 3.1
Cc1nccc2c1C(=C1Oc3ccccc3C1=O)C(=O)N2C(C)C [Compound 68]	14 ± 1.7	18.5 ± 1.8

Continued by falling IC50 [1], values first:

IC50 [1] [µM]	IC50 [2] [µM]	Compound
10 ± 1.4	32.2 ± 2.4	CC(C)N1C(=O)C(=C2Oc3ccccc3C2=O)c2ccccc21 [Compound 8]
10 ± 0.6	31.5 ± 1.8	CC(C)N1C(=O)C(=C2Oc3ccccc3C2=NO)c2ccc(Cl)cc21 [Compound 36]
9.5 ± 2.1	31.5 ± 2.9	CCN1C(=O)C(=C2Oc3ccccc3C2=O)c2cccc(F)c21 [Compound 4]
9.5 ± 0.6	4.8 ± 0.7	CON=C1C(=C2C(=O)Nc3ccccc32)Oc2ccccc21 [Compound 49]
9.5 ± 2.1	11.5 ± 1	CN1C(=O)C(=C2Oc3ccccc3C2=O)c2cnccc21 [Compound 62]
9.05 ± 1.4	32.2 ± 1.5	O=C1C(=C2Oc3ccccc3C2=NO)c2ccccc2N1Cc1ccccc1 [Compound 38, N1-benzyl-1′-oxo-indirubin-3′-oxime]
9 ± 2.1	41 ± 1.7	Cc1ccc2c(c1)C(=C1Oc3ccccc3C1=NO)C(=O)N2C(C)C [Compound 37]
8.5 ± 1.6	45 ± 1.9	CC(C)N1C(=O)C(=C2Oc3ccccc3C2=O)c2cc(Cl)ccc21 [Compound 11]
8.3 ± 1.7	45 ± 3	Cc1ccc2c(c1)C(=C1Oc3ccccc3C1=NO)C(=O)N2Cc1ccccc1 [Compound 41]
8.1 ± 0.6	28.5 ± 1.3	CC(C)N1C(=O)C(=C2Oc3ccccc3C2=O)c2cccc(F)c21 [Compound 10]
8 ± 1.2	19 ± 1.6	CCN1C(=O)C(=C2Oc3ccccc3C2=O)c2cc(C)ccc21 [Compound 7]
8 ± 2.3	25 ± 2.7	Cc1ccc2c(c1)C(=C1Oc3ccccc3C1=O)C(=O)N2Cc1ccccc1 [Compound 17]
7.7 ± 1.2	2.9 ± 0.5	CON=C1C(=C2C(=O)Nc3c(F)cccc32)Oc2ccccc21 [Compound 50]
7.4 ± 1.7	34 ± 0.9	O=C1C(=C2C(=O)N(Cc3ccccc3)c3ccc(F)cc32)Oc2ccccc21 [Compound 15]
7.4 ± 1.7	1.8 ± 0.6	CC(C)N1C(=O)C(=C2Oc3ccccc3C2=O)c2cnccc21 [Compound 66]
7.1 ± 0.7	19 ± 1.1	CCN1C(=O)C(=C2Oc3ccccc3C2=NO)c2ccccc21 [Compound 27]
7.1 ± 1.1	2.7 ± 1.2	CON=C1C(=C2C(=O)N(Cc3ccccc3)c3ccccc32)Oc2ccccc21 [Compound 56, N1-benzyl-1′-oxo-indirubin-3′-oxime ether]
7.05 ± 1.1	17 ± 1.9	CCN1C(=O)C(=C2Oc3ccccc3C2=O)c2cc(F)ccc21 [Compound 18]
7 ± 1.6	24 ± 1.5	O=C1C(=C2C(=O)N(Cc3ccccc3)c3ccccc32)Oc2ccccc21 [Compound 14, N1-benzyl-1′-oxo-indirubin]
7 ± 1.3	30 ± 1.5	CCN1C(=O)C(=C2Oc3ccccc3C2=NO)c2cccc(F)c21 [Compound 28]

IC50 [1] [µM]	IC50 [2] [µM]	Compound
6.9 ± 0.8	3.1 ± 0.8	CON=C1C(=C2C(=O)N(Cc3ccccc3)c3ccc(F)cc32)Oc2ccccc21 [Compound 57]
5.4 ± 0.6	29 ± 1.8	O=C1Nc2c(F)cccc2C1=C1Oc2ccccc2C1=NO [Compound 26]
5 ± 0.9	3.7 ± 0.9	CCN1C(=O)C(=C2Oc3ccccc3C2=NOC)c2cc(F)ccc21 [Compound 59]
4.8 ± 0.6	3.6 ± 0.2	CCN1C(=O)C(=C2Oc3ccc(Cl)cc3C2=NO)c2cc(Cl)ccc21 [Compound 45]
4.5 ± 0.6	3.6 ± 0.4	CCCCN1C(=O)C(=C2Oc3ccccc3C2=O)c2cncc(F)c21 [Compound 70]
4 ± 2.4	12 ± 1.9	CCN1C(=O)C(=C2Oc3ccc(Cl)cc3C2=O)c2cc(Cl)ccc21 [Compound 21]
3.9 ± 0.5	1.7 ± 0.6	CCN1C(=O)C(=C2Oc3ccccc3C2=NOC)c2ccccc21 [Compound 51]
3.8 ± 1.5	12.1 ± 0.9	CC(C)N1C(=O)C(=C2Oc3ccc(Cl)cc3C2=O)c2ccc(Cl)cc21 [Compound 24]
3.8 ± 0.5	3 ± 0.5	CCN1C(=O)C(=C2Oc3ccccc3C2=NO)c2ccc(Cl)cc21 [Compound 30]
3.7 ± 0.9	5 ± 0.9	O=C1Nc2ccccc2C1=C1Oc2ccccc2C1=NO [Compound 25]
3.6 ± 0.2	7.7 ± 1.2	CCN1C(=O)C(=C2Oc3ccccc3C2=NO)c2cc(Cl)ccc21 [Compound 29]
3.4 ± 0.7	3.8 ± 0.5	CCN1C(=O)C(=C2Oc3ccc(Cl)cc3C2=NO)c2ccc(Cl)cc21 [Compound 46]
3.1 ± 0.8	6.9 ± 0.8	CC(C)N1C(=O)C(=C2Oc3ccc(Cl)cc3C2=O)c2cc(Cl)ccc21 [Compound 23]
2.8 ± 0.4	2.1 ± 0.2	CCN1C(=O)C(=C2Oc3ccccc3C2=NOC)c2cccc(F)c21 [Compound 52]
2.7 ± 1.2	7.1 ± 1.1	CCN1C(=O)C(=C2Oc3ccc(Cl)cc3C2=O)c2ccc(Cl)cc21 [Compound 22]
2.1 ± 0.5	16 ± 1.5	CON=C1C(=C2C(=O)N(C3OC(CO)C(O)C(O)C3O)c3ccc(Cl)cc32)Oc2ccccc21 (stereo not drawn) [Compound 53]
1.9 ± 0.4	2.6 ± 0.4	CC(C)N1C(=O)C(=C2Oc3ccc(Cl)cc3C2=NO)c2ccc(Cl)cc21 [Compound 48]
1.7 ± 0.8	1.6 ± 0.8	CC(C)N1C(=O)C(=C2Oc3ccccc3C2=NO)c2cc(Cl)ccc21 [Compound 47]
1.2 ± 0.8	2.8 ± 0.4	CCN1C(=O)C(=C2Oc3ccccc3C2=NO)c2cc(C)ccc21 [Compound 31]
